Experimental data from patent US20070258972A1, “Combination of a Histone Deacetylase Inhibitor with a Death Receptor Ligand” (priority 2003, published 2007).

Columns and labels:
DR5 = DR5 expression on the cell membrane by flow cytometry, primary AML sample; assay type: cell-based, human
HDAC = conditions: 5-250 nM; HeLa cell nuclear extracts; previously reported; cited from earlier work
[1] = system: DR5 promoter associated with acetylated histones H3 and H4; assay: ChIP assay, DR5 promoter; assay type: cell-based, human; conditions: 8 hours, Jurkat cells
Experimental: ChIP analysis was performed by a slight modification of a previously described method. Cells are incubated overnight at a density of 0.25×10^8 cells/ ml at 37° C. with 5% CO2. […] Formaldehyde was then added to the cells to a final concentration of 1%, and the cells are gently shaken at room temperature for 10 minutes. Following this, the cells are pelleted, suspended in 1 mL of ice-cold PBS containing protease inhibitors (Complete, Boehringer Mannheim). Cells are again pelleted, re-suspended in 0.5 mL of SDS lysis buffer (1% SDS/1.0 mM EDTA/50 mM Tris.HCl, pH 8.1) and incubated on ice for 20 minutes. Lysates are sonicated with 15-second bursts. Debris was removed from samples by centrifugation for 20 minutes at 15,000×g at 4° C. An aliquot of the chromatin preparation (100 μL) was set aside and designated as Input Fraction. […] Immunoprecipitated DNA (both immunoprecipitation samples and Input) was recovered by phenol/chloroform extraction and ethanol precipitation and analyzed by PCR. […] The optimal reaction conditions for PCR are determined for each primer pair. […] The ratio between the immunoprecipitated DNA and Input DNA was calculated for each treatment and primer set. The fold increases after treatment with LAQ824 was calculated from the indicated ratio.

Compound: O=C(/C=C/c1ccc(CN(CCO)CCc2c[nH]c3ccccc23)cc1)NO [LAQ824, N-hydroxy-3-[4-[[(2-hydroxyethyl)[2-(1H-indol-3-yl)ethyl]-amino]methyl]phenyl]-2E-2-propenamide]
- DR5 expression on the cell membrane (DR5; 100 nM LAQ824, baseline 17.5%): 33.2 % of cells
- DR5 expression on the cell membrane (DR5; 250 nM LAQ824, baseline 17.5%): 62.4 % of cells
- in vitro HDAC activity (HDAC): inhibits the in vitro HDAC activity in a dose-dependent manner
- increase of DR5 promoter associated with acetylated histones H3 and H4 ([1]; first of 'respectively' (100 nM / H3)): 3.3 fold
- increase of DR5 promoter associated with acetylated histones H3 and H4 ([1]; second of 'respectively' (200 nM / H4)): 5.7 fold
